Assay results from publication PMC12274840 (The Journal of Biological Chemistry, 2025).
Where “and” joins values, the source holds several entries; their conditions need not be identical. Identical values can stand only once.

Columns and labels:
BlaC I105R [1] = molecular target: T1, BlaC I105R (Mycobacterium tuberculosis, UniProt P9WKD3, I117R); type: biochemical; conditions: pH 6.4
BlaC I105R [2] = molecular target: T1, BlaC I105R; type: biochemical

Compound | kcat (BlaC I105R [1]) [s⁻¹] | in vitro sensitivity to inhibition compared with wild type (BlaC I105R [2]) | k2 (BlaC I105R [2]) | further results
CC1(C)S[C@@H]2[C@H](NC(=O)[C@H](N)c3ccccc3)C(=O)N2[C@H]1C(=O)O [ampicillin] | 3.4 ± 0.1 | – | – | –
NC(=O)[C@@H]1CC[C@@H]2CN1C(=O)N2OS(=O)(=O)O [avibactam] | – | less sensitive | 9.5 and 9.5 10^−2 s^−1 | k-2 (BlaC I105R [2]): 0.1 and 0.1 10^−3 s^−1
CC1(C)S[C@@H]2[C@H](NC(=O)C(C(=O)O)c3ccccc3)C(=O)N2[C@H]1C(=O)O (stereo partly drawn) [carbenicillin] | 0.27 ± 0.01 | – | – | –
O=C(O)[C@H]1/C(=C/CO)O[C@@H]2CC(=O)N21 [clavulanic acid] | – | less sensitive | 4.6 and 4.6 10^−2 s^−1 | k1 (BlaC I105R [2]): 1e+06 M⁻¹ s⁻¹; k3 (BlaC I105R [2]): 2 and 2 10^−3 s^−1
O=C(Cc1cccs1)N[C@@H]1C(=O)N2C(C(=O)O)=C(/C=C/c3ccc([N+](=O)[O-])cc3[N+](=O)[O-])CS[C@H]12 [nitrocefin] | 24 ± 2 | – | – | ka (BlaC I105R [2]): 180000 M⁻¹ s⁻¹; kc (BlaC I105R [2]): 40 s⁻¹ and 57 s⁻¹
